Source: the NIST ThermoML archive (doi:10.1016/j.jct.2014.07.018)
Numbers after ± are expanded uncertainties.

Experiment: molar heat capacity at constant pressure
Details: 101.33 kPa, Vacuum adiabatic calorimetry

CCC[n+]1ccn(C)c1.[Br-] [1-methyl-3-propylimidazolium bromide]
Details	molar heat capacity at constant pressure [J/K/mol]
147.83 K, Crystal 2	133.2 ± 0.6
148.11 K, Glass	140.8 ± 0.6
149.71 K, Crystal 2	134.1 ± 0.6
149.83 K, Crystal 2	134.2 ± 0.6
150 K, Crystal 2	134.3 ± 0.6
150 K, Glass	141.9 ± 0.6
150.11 K, Glass	141.9 ± 0.6
151.82 K, Crystal 2	135.2 ± 0.6
151.83 K, Crystal 2	135.2 ± 0.6
152.11 K, Glass	143.1 ± 0.6
153.84 K, Crystal 2	136.2 ± 0.6
153.93 K, Crystal 2	136.3 ± 0.6
154.12 K, Glass	144.2 ± 0.6
155.85 K, Crystal 2	137.2 ± 0.6
156.04 K, Crystal 2	137.3 ± 0.6
156.13 K, Glass	145.4 ± 0.6
157.86 K, Crystal 2	138.3 ± 0.6
158.13 K, Glass	146.5 ± 0.6
158.16 K, Crystal 2	138.4 ± 0.6
159.86 K, Crystal 2	139.3 ± 0.6
160 K, Crystal 2	139.3 ± 0.6
160 K, Glass	147.5 ± 0.7
160.14 K, Glass	147.6 ± 0.6
160.27 K, Crystal 2	139.5 ± 0.6
161.87 K, Crystal 2	140.2 ± 0.6
162.15 K, Glass	148.7 ± 0.6
162.38 K, Crystal 2	140.6 ± 0.6
163.88 K, Crystal 2	141.3 ± 0.6
164.17 K, Glass	149.8 ± 0.7
164.5 K, Crystal 2	141.6 ± 0.6
165.89 K, Crystal 2	142.3 ± 0.6
166.18 K, Glass	151 ± 0.7
166.61 K, Crystal 2	142.6 ± 0.6
167.9 K, Crystal 2	143.3 ± 0.6
168.19 K, Glass	152.2 ± 0.7
168.73 K, Crystal 2	143.7 ± 0.6
169.91 K, Crystal 2	144.4 ± 0.6
170 K, Crystal 2	144.4 ± 0.6
170 K, Glass	153.2 ± 0.7
170.21 K, Glass	153.3 ± 0.7
170.84 K, Crystal 2	144.8 ± 0.6
171.92 K, Crystal 2	145.4 ± 0.6
172.22 K, Glass	154.5 ± 0.7
172.95 K, Crystal 2	146.1 ± 0.6
173.94 K, Crystal 2	146.6 ± 0.6
174.24 K, Glass	155.6 ± 0.7
175.06 K, Crystal 2	147.4 ± 0.6
175.95 K, Crystal 2	147.9 ± 0.6
176.26 K, Glass	156.8 ± 0.7
177.17 K, Crystal 2	148.7 ± 0.6
177.96 K, Crystal 2	149.1 ± 0.6
178.28 K, Glass	158 ± 0.7
179.28 K, Crystal 2	149.8 ± 0.7
179.98 K, Crystal 2	150.2 ± 0.7
180 K, Crystal 2	150.2 ± 0.7
180 K, Glass	159.1 ± 0.7
180.3 K, Glass	159.2 ± 0.7
181.39 K, Crystal 2	150.9 ± 0.7
182 K, Crystal 2	151.2 ± 0.7
182.32 K, Glass	160.4 ± 0.7
183.49 K, Crystal 2	152 ± 0.7
184.02 K, Crystal 2	152.2 ± 0.7
184.34 K, Glass	161.7 ± 0.7
185.6 K, Crystal 2	153 ± 0.7
186.04 K, Crystal 2	153.2 ± 0.7
186.37 K, Glass	162.9 ± 0.7
187.7 K, Crystal 2	154.1 ± 0.7
188.06 K, Crystal 2	154.3 ± 0.7
188.39 K, Glass	164.2 ± 0.7
189.8 K, Crystal 2	155.2 ± 0.7
190 K, Crystal 2	155.3 ± 0.7
190 K, Glass	164.3 ± 0.7
190.08 K, Crystal 2	155.3 ± 0.7
190.42 K, Glass	165.5 ± 0.7
191.9 K, Crystal 2	156.2 ± 0.7
192.1 K, Crystal 2	156.3 ± 0.7
192.45 K, Glass	166.9 ± 0.7
194 K, Crystal 2	157.3 ± 0.7
194.12 K, Crystal 2	157.4 ± 0.7
194.48 K, Glass	168.3 ± 0.7
196.1 K, Crystal 2	158.4 ± 0.7
196.15 K, Crystal 2	158.4 ± 0.7
196.52 K, Glass	169.7 ± 0.7
198.17 K, Crystal 2	159.4 ± 0.7
198.2 K, Crystal 2	159.4 ± 0.7
198.56 K, Glass	171.3 ± 0.7
200 K, Crystal 2	160.4 ± 0.7
200 K, Glass	171.3 ± 0.7
200.2 K, Crystal 2	160.5 ± 0.7
200.29 K, Crystal 2	160.5 ± 0.7
200.61 K, Glass	173 ± 0.7
202.22 K, Crystal 2	161.6 ± 0.7
202.39 K, Crystal 2	161.7 ± 0.7
202.66 K, Glass	174.7 ± 0.7
204.25 K, Crystal 2	162.6 ± 0.7
204.48 K, Crystal 2	162.8 ± 0.7
204.71 K, Glass	177.1 ± 0.8
206.28 K, Crystal 2	163.8 ± 0.7
206.57 K, Crystal 2	163.9 ± 0.7
206.79 K, Glass	179.5 ± 0.8
208.31 K, Crystal 2	164.9 ± 0.7
208.66 K, Crystal 2	165.1 ± 0.7
208.84 K, Glass	183.4 ± 0.8
210 K, Crystal 2	165.9 ± 0.7
210 K, Glass	183.6 ± 0.8
210.35 K, Crystal 2	166 ± 0.7
210.75 K, Crystal 2	166.3 ± 0.7
210.87 K, Glass	189.3 ± 0.8
212.38 K, Crystal 2	167.3 ± 0.7
212.84 K, Crystal 2	167.5 ± 0.7
212.85 K, Glass	201.5 ± 0.9
214.41 K, Crystal 2	168.5 ± 0.7
214.71 K, Liquid	229.7 ± 1
214.92 K, Crystal 2	168.8 ± 0.7
216.44 K, Crystal 2	169.7 ± 0.7
216.52 K, Liquid	256.1 ± 1.1
217 K, Crystal 2	170.1 ± 0.7
218.48 K, Crystal 2	170.9 ± 0.7
218.48 K, Liquid	258.4 ± 1.1
219.08 K, Crystal 2	171.3 ± 0.7
220 K, Crystal 2	171.8 ± 0.7
220 K, Liquid	258.4 ± 1.1
220.51 K, Crystal 2	172.1 ± 0.7
220.52 K, Liquid	259.6 ± 1.1
221.15 K, Crystal 2	172.5 ± 0.7
222.55 K, Crystal 2	173.3 ± 0.7
223.22 K, Crystal 2	173.7 ± 0.7
224.59 K, Crystal 2	174.5 ± 0.7
225.29 K, Crystal 2	175 ± 0.8
226.63 K, Crystal 2	175.8 ± 0.8
227.36 K, Crystal 2	176.2 ± 0.8
